Experiments:
[1] = 300 kPa, Fluid (supercritical or subcritical phases)
[2] = xn = mol fraction of the nth substance listed; conditions: 300 kPa, Fluid (supercritical or subcritical phases)

O=C=O [carbon dioxide]
[1]
Conditions	viscosity [mPa·s]
500 K	0.0236
800 K	0.0356
1100 K	0.0452

[HH] [hydrogen]
[1]
Conditions	viscosity [mPa·s]
500 K	0.0129
800 K	0.0179
1100 K	0.0226

O=C=O [carbon dioxide] + [HH]
[2], x2 = 0
Conditions	viscosity [mPa·s]
500 K	0.0236
800 K	0.0356
1100 K	0.0452

[HH] [hydrogen] + O=C=O
viscosity [mPa·s], [2]
Conditions	x1 = 0.15	x1 = 0.3	x1 = 0.5	x1 = 0.7	x1 = 0.85	x1 = 1
500 K	0.0238	0.0241	0.0236	0.0215	0.0192	0.0129
800 K	0.0351	0.0346	0.0336	0.0303	0.0269	0.0179
1100 K	0.0438	0.0431	0.0422	0.0403	0.0346	0.0226
